These results are taken from US12018096B2, “Potent peptide inhibitors of protein aggregation” (COUNCIL OF SCIENTIFIC & INDUSTRIAL RESEARCH, priority 2017, dated 2024).

Entries after “also recorded” stand apart in the source; their conditions may differ. No end group written: not given here.

Experiment [1] concerns the target T1, α-syn (Homo sapiens, UniProt P37840).
T1 construct: His6 (N); made in house; host or cells: E. coli Rossetta (DE3), pET29a based expression vector
Description: In vitro fibrillation assay (Thioflavin T fluorescence). The format is biochemical. As to conditions: α-syn 400 μM, purified peptide at equimolar concentration, 37° C., 900 rpm. The method, then:
ThT is a fluorescent dye which is known to bind specifically to […] rich fibrils, and such binding further increases its fluorescence intensity. The fibrillation assay was carried out with α-syn in the presence and absence of above identified interacting phages.
The N-terminal His6-tagged human wild-type α-syn was expressed in E. coli Rossetta (DE3) (#70954 Novagen) using pET29a based expression vector. After IPTG induction bacterial cell pellets were harvested by centrifugation and resuspended in 10 mM Tris-HCl, pH 8.0, 1 mM EDTA, 1 mM Pierce protease inhibitor cocktail. […] Briefly, cell lysis was carried out by sonication, lysate was boiled at 95° C. for 30 minutes, followed by centrifugation at 10,000×g for 30 minutes at 4° C. […] Protein was quantitated using BCA protein estimation kit as per manufacturer's protocol (#23227 Thermo Scientific).
Thioflavin T (ThT) (4 mM) was added to 400 μM of purified α-syn with and without phages (10^11) or purified peptides at equimolar concentration in a 96 microwell plate. The plate was incubated at 37° C. with a shaking speed of 900 rpm in linear mode in a multimode plate reader (TECAN infinite M200 PRO). Fluorescence kinetics was measured after every 15 minutes with emission wavelength of 482 nm upon excitation at 442 nm. […]

In experiment [2] the test system is Rat phaeochromocytoma (PC12) cells. Description: MTT assay with PC12 cells. The format is cell-based. The method, then:
MTT ((3-(4,5-Dimethylthiazol-2-yl)-2,5-diphenyltetrazolium bromide)) cell toxicity experiments were performed using Rat phaeochromocytoma (PC12) neuronal-like cells to assess toxicity of α-syn and the protective effects of the Pep.2 and CycPep.2 generated in this study. MTT assay (FIG. 5) was performed with PC12 cells incubated with α-syn fibrillation end products in presence and absence of peptides. […] However, with similar concentration of α-syn, the presence of Pep.2 and CycPep.2 improved cellular viability by 30% and >99% respectively.
MTT experiments were performed using Rat phaeochromocytoma (PC12) cells to assess cytotoxic effect of α-syn. Inhibition of PC12 cell redox activity is specific and early indicator of cell death. In MTT assay, water soluble MTT dye (3-(4, 5-dimethylthiazol-2-yl)-2,5-diphenyltetrazolium bromide) (#M2003 Sigma-Aldrich) is converted to formazan, and the conversion is monitored via absorbance measurement at 570 nm. The conversion of the MTT dye to formazan is dependent of redox status of the cell and thus the change in absorbance can be used as an indicator of the cellular viability in the assay.
PC12 cells were maintained in growth media RPMI 1640 supplemented with 10% horse serum, 5% fetal bovine serum, and antibiotics penicillin and streptomycin. […] The absorbance was measured at 570 nm using a multimode plate reader (TECAN infinite M200 PRO). […]
(Tetrazolium dyes change colour on reduction, which living cells bring about.)

“Pep.2d: SEQ ID NO 1; truncated derivative of Pep.2 (HHHH; Sequence retrieved through Sequence logo)”: the “inhibition of α-syn fibrillation (ThT fluorescence)” value in experiment [1] is “inhibits α-syn fibrillation; also recorded: able to reduce α-syn fibrillation comparable with Pep.2”.

For the substance “Pep.2: SEQ ID NO 2; parent peptide identified from phage display against α-syn (Ac-SACNHHHHLHCGG; not fully specified; cysteine pairing not given here)”, in experiment [2] (10 μM α-syn with peptide in equimolar ratio, 24 hours), the “α-syn associated toxicity in PC12 cells (absorbance at 570 nm)” value is recorded as “reduced α-syn associated toxicity”. Also, the “improved cellular viability in presence of α-syn” value in experiment [2] (PC12 cells, α-syn fibrillation end products with peptide in equimolar ratio, 24 h, α-syn alone gives loss of viability by about 50%) was 30%.
